Measured values reported in US5300639A, “Thiazolo [5,4-b]azepine compounds” (Takeda Chemical Industries, Ltd., priority 1992, dated 1994).
Where a name gives a salt, the structure may show the parent alone.

Test system: Cerebral blood flow after complete cerebral ischemia-reperfusion in dogs
Experiment: Effect on cerebral blood flow and cortical water content after complete cerebral ischemia-reperfusion in dogs
Assay type: in vivo, dog (adult mongrel)
Settings: for Decrease rate of γ-CBF 3 hours after reperfusion: control 44.3±1.4%
Protocol: Fourteen adult mongrel dogs were anesthetized with a combination of α-chloralose and urethane. Polyethylene catheters were introduced into the femoral artery and vein. Systemic blood pressure was measured through the cannulated femoral artery with an electromanometer. Heart rate was recorded with a cardiotachometer. The regional cerebral blood flow (γ-CBF) was measured using a thermal diffusion flow probe incorporating a Peltier stack. The animals were subjected to positive-pressure ventilation with room-air. A thoracotomy was performed in the third right intercostal space. […] Occlusion was maintained for 10 minutes. After reperfusion, all physiological variables were continuously recorded for 3 hours. After 3 hours of reperfusion, animals were sacrificed. The regional cerebral cortex was removed, weighed and then dried (48 hours at 120° C.) to remove water content. The test drugs were given intravenously 5 minutes before ischemia.

In the case of `Cc1ccc(-c2nc3c(s2)NCCCC3)cc1N` [Example 106, 2-(3-Amino-4-methylphenyl)-5,6,7,8-tetrahydro-4H-thiazolo-[5,4-b]azepine dihydrochloride], the “Effect on decrease in γ-CBF” value (1 mg/kg, i.v., 3 hours after reperfusion) is reported as “significantly inhibited a decrease in γ-CBF 3 hours after reperfusion”, the “Water Content (%) of cerebral cortex” value (1 mg/kg, i.v., 3 hours after reperfusion, control 79.81 ± 0.21) is reported as 78.22 ± 0.08% and the “Decrease rate of γ-CBF 3 hours after reperfusion” value (1 mg/kg, i.v.) is reported as 18.0±3.1%. The “Effect on post-ischemia hypoperfusion in γ-CBF” value (10 mg/kg, i.v.) was “almost completely inhibited the post-ischemia hypoperfusion in γ-CBF”, the “Decrease rate of γ-CBF 3 hours after reperfusion” value (10 mg/kg, i.v.) was 6.5±2.5% and the “Effect on increase in water content in the cerebral cortex” value (3 hours after reperfusion) was “significantly inhibited the increase in water content in the cerebral cortex 3 hours after reperfusion”. The “Time after reperfusion at which γ-CBF recovered to the pre-occlusion level” value (i.v., 5 minutes before ischemia) was 30 min and the “γ-CBF immediately after reperfusion” value (i.v., 5 minutes before ischemia, vs control group) was “transiently increased, with reactive hyperemia to the same extent as that of the control group”.
